Results as given in ChEMBL document CHEMBL5338750, “Design of Sonosensitizers Integrated with Resveratrol Motif for Synergetic Sonodynamic Therapy and Nuclear Factor Kappa B Transcription Suppression of Breast Cancer” (J Med Chem, 2023).
Active and inactive are the calls of the source. The rule behind the calls is not given here.

Experiments:
MCF7 [1] = experiment: Cytotoxicity against human MCF7 cells assessed as inhibition of cell growth preincubated for 72 hrs followed by ultrasonic sound treatment for 30 sec by MTT assay; format: functional, cell-based; conditions: for Activity: time 259230.0 sec
[2] = target: Nuclear factor NF-kappa-B complex (Homo sapiens) (UniProt Q00653+P19838+Q04206); experiment: Inhibition of H2O2-induced NFkappaB activation in human MCF7 cells at 1 uM measured for 12 hrs by ELISA analysis; format: cell-based
Chain of Nuclear factor NF-kappa-B complex (Homo sapiens) (P19838 whole entry, looked up): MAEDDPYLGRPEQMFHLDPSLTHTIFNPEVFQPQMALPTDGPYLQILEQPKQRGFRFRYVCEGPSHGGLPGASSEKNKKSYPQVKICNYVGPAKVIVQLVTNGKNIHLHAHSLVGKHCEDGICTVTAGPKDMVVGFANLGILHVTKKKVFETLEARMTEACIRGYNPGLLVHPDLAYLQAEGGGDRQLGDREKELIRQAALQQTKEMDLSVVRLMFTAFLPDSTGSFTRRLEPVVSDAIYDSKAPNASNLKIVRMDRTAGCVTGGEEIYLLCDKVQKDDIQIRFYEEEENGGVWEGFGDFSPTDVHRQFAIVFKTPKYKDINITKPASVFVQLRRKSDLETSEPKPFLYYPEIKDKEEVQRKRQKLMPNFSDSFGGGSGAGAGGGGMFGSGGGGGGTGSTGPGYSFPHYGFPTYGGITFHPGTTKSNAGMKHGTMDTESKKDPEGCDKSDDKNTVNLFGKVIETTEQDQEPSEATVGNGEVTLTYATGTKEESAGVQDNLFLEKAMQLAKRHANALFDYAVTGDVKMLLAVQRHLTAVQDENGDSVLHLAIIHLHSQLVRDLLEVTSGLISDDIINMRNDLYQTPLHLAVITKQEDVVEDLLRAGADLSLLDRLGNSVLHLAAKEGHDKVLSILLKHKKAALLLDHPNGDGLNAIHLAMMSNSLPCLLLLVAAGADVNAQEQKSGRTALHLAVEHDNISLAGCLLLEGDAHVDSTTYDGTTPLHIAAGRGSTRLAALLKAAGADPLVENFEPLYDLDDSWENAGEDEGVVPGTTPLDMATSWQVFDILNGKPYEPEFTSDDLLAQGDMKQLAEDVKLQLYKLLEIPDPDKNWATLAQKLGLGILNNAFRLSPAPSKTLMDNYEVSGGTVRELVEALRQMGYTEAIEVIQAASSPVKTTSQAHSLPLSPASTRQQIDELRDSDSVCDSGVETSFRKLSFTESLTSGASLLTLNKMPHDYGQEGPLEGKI
Chain of Nuclear factor NF-kappa-B complex (Homo sapiens) (Q00653 whole entry, looked up): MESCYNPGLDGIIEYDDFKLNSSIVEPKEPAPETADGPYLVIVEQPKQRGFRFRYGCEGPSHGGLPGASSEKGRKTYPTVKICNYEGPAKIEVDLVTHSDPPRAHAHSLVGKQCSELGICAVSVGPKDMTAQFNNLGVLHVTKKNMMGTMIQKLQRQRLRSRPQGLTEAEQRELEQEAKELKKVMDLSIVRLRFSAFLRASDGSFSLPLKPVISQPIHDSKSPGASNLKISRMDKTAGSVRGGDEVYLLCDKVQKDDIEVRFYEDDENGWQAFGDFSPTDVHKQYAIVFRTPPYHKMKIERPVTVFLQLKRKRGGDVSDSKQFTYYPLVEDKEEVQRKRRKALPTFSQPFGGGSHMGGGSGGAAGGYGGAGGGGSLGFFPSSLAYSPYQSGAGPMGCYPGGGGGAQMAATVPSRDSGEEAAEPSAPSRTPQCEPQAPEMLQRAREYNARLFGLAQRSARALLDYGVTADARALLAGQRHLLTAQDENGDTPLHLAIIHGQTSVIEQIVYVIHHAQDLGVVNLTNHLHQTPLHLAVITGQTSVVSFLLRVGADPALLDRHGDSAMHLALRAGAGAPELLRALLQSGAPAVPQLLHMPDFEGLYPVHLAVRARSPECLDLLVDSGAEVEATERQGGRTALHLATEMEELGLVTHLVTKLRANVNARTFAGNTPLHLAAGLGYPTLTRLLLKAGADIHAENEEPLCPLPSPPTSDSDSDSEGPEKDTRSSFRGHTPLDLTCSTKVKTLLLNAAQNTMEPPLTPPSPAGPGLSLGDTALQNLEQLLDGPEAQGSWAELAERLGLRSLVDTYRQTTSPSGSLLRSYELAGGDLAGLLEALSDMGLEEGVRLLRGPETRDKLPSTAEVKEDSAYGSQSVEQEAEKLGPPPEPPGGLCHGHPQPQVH
Chain of Nuclear factor NF-kappa-B complex (Homo sapiens) (Q04206 whole entry, looked up): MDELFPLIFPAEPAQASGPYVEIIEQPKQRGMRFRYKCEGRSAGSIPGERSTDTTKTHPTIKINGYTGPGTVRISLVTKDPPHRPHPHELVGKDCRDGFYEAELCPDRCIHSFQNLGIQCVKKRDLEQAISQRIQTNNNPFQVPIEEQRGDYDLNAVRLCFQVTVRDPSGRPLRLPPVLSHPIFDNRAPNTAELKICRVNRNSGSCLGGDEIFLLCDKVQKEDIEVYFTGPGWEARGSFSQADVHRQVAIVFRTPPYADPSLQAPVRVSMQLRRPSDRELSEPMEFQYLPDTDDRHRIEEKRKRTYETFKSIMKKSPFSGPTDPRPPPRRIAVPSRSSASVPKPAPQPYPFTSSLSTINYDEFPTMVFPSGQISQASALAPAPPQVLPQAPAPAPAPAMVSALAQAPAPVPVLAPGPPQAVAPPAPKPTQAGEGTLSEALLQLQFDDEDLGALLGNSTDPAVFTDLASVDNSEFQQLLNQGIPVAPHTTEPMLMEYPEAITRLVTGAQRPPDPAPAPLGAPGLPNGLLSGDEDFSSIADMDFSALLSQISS

[3] = Inhibition of LPS-stimulated NO production in mouse RAW264.7 cells incubated for 24 hrs by Griess reagent based microplate reader analysis; format: functional, cell-based; conditions: RAW264.7, 24 h
[4] = Induction of hyperthermia in solvent assessed as increase in temperature at 10 uM treated with ultrasonic sound for 2 mins and measured after 5 mins; conditions: time 7.0 min
MCF7 [5] = experiment: Sono-cytotoxicity against human MCF7 cells assessed as inhibition of cell growth preincubated for 4 hrs followed by ultrasonic sound treatment for 5 mins by MTT assay; format: functional, cell-based
MCF7 [6] = experiment: Induction of ROS generation in human MCF7 cells assessed as increase in ROS level incubated for 4 hrs by DCFH-DA dye based flow cytometry analysis (Rvb=2.9%); format: functional
MCF7 [7] = experiment: Sono-cytotoxicity against human MCF7 cells assessed as inhibition of cell growth preincubated for 4 hrs followed by ultrasonic sound treatment for 30 sec by MTT assay; format: functional, cell-based
MCF7 [8] = experiment: Induction of ROS generation in human MCF7 cells assessed as […] preincubated for 4 hrs followed by ultrasonic sound treatment for 30 sec by DCFH-DA dye based inverted microscopy; format: functional, cell-based; conditions: time 14430.0 sec
MCF7 [9] = experiment: Induction of apoptosis in human MCF7 cells at 10 uM incubated for 24 hrs by Annexin V-FITC/propidium iodide double staining based flow cytometry analysis; format: functional, cell-based
MCF7 [10] = experiment: Induction of apoptosis in human MCF7 cells assessed as necrotic cells preincubated for 4 hrs followed by ultrasonic sound treatment for 30 sec and measured after 24 hrs by Annexin V-FITC/propidium iodide double staining based flow cytometry analysis (reference value: 1.05%); format: functional; conditions: 28 h
MCF7 [11] = experiment: Induction of apoptosis in human MCF7 cells assessed as late apoptotic cells preincubated for 4 hrs followed by ultrasonic sound treatment for 30 sec and measured after 24 hrs by Annexin V-FITC/propidium iodide double staining based flow cytometry analysis (reference value: 0 %); format: functional; conditions: 28 h
MCF7 [12] = experiment: Cytotoxicity against human MCF7 cells assessed as inhibition of cell growth more than 1 uM measured for 72 hrs by MTT assay; format: functional, cell-based
MCF7 [13] = experiment: Induction of apoptosis in human MCF7 cells assessed as early apoptotic cells preincubated for 4 hrs followed by ultrasonic sound treatment for 30 sec and measured after 24 hrs by Annexin V-FITC/propidium iodide double staining based flow cytometry analysis (reference value: 1.83 %); format: functional; conditions: 28 h
MCF7 [14] = experiment: Sono-cytotoxicity against human MCF7 cells assessed as inhibition of cell growth preincubated for 4 hrs followed by ultrasonic sound treatment for 2 mins by MTT assay; format: functional, cell-based
[15] = Inhibition of LPS-stimulated NO production in mouse RAW264.7 cells at 10 uM incubated for 24 hrs by Griess reagent based microplate reader analysis relative to control; format: functional
MCF7 [16] = experiment: Induction of ROS generation in human MCF7 cells assessed as increase in red fluorescence incubated for 4 hrs by Hoechst 33342 staining based confocal microscopic analysis; format: functional, cell-based
MCF7 [17] = experiment: Cytotoxicity against human MCF7 cells assessed as inhibition of cell growth incubated for 72 hrs by MTT assay; format: functional, cell-based; conditions: MCF7, 72 h
MCF7 [18] = experiment: Induction of apoptosis in human MCF7 cells assessed as viable cells preincubated for 4 hrs followed by ultrasonic sound treatment for 30 sec and measured after 24 hrs by Annexin V-FITC/propidium iodide double staining based flow cytometry analysis (reference value: […]); format: functional; conditions: 28 h
MCF7 [19] = experiment: Induction of ROS generation in human MCF7 cells assessed as increase in ROS level preincubated for 4 hrs followed by ultrasonic sound treatment for 30 sec by DCFH-DA dye based flow cytometry analysis (Rvb= 3.5%); format: functional; conditions: time 14430 sec; 4.008 h
[20] = Toxicity in BALB/c mouse xenografted with human MCF7 cells assessed as decrease in body weight at 1.5 mg/kg, iv administered for 10 days followed by ultrasonic sound treatment for 2 to 6 hrs and measured immediately; format: organism-based; conditions: in vivo, time 242-246 hrs
[21] = Toxicity in BALB/c mouse xenografted with human MCF7 cells assessed as lung damage at 1.2 mg/kg, iv administered for 10 days and measured immediately by Hand E staining based analysis; format: organism-based; conditions: in vivo, 240 h, time 10 day
[22] = Toxicity in BALB/c mouse xenografted with human MCF7 cells assessed as liver damage at 1.2 mg/kg, iv administered for 10 days followed by ultrasonic sound treatment for 2 to 6 hrs and measured immediately by Hand E staining based analysis; format: organism-based; conditions: in vivo, time 242-246 hrs
[23] = Downregulation of IL-6 expression level in serum of BALB/c mouse at 1.5 mg/kg, iv measured at 12 to 24 hrs; format: functional; conditions: time 12-24 hrs
[24] = Toxicity in BALB/c mouse xenografted with human MCF7 cells assessed as spleen damage at 1.2 mg/kg, iv administered for 10 days followed by ultrasonic sound treatment for 2 to 6 hrs and measured immediately by Hand E staining based analysis; format: organism-based; conditions: in vivo, time 242-246 hrs
[25] = Toxicity in BALB/c mouse xenografted with human MCF7 cells assessed as kidney damage at 1.2 mg/kg, iv administered for 10 days and measured immediately by Hand E staining based analysis; format: organism-based; conditions: in vivo, 240 h, time 10 day
[26] = Drug uptake in BALB/c mouse tumor xenografted with human MCF7 cells assessed as accumulation of red fluorescence at 1.5 mg/kg, iv measured at 6 hrs by fluorescence imaging analysis; format: ADME, organism-based, Neoplasm; conditions: in vivo
MCF7 [27] = experiment: Effect of p38 protein level in human MCF7 cells at 10 uM measured for 24 hrs by ELISA analysis; format: functional, cell-based
[28] = Toxicity in BALB/c mouse xenografted with human MCF7 cells assessed as liver damage at 1.2 mg/kg, iv administered for 10 days and measured immediately by Hand E staining based analysis; format: organism-based; conditions: in vivo, 240 h, time 10 day
[29] = Toxicity in BALB/c mouse xenografted with human MCF7 cells assessed as drug tolerance at 1.5 mg/kg, iv administered for 10 days followed by ultrasonic sound treatment for 2 to 6 hrs and measured immediately; format: organism-based; conditions: in vivo, time 242-246 hrs
MCF7 [30] = experiment: Effect of TNF-alpha protein level in human MCF7 cells at 10 uM measured for 24 hrs by ELISA analysis; format: functional, cell-based
[31] = Toxicity in BALB/c mouse xenografted with human MCF7 cells assessed as lung damage at 1.2 mg/kg, iv administered for 10 days followed by ultrasonic sound treatment for 2 to 6 hrs and measured immediately by Hand E staining based analysis; format: organism-based; conditions: in vivo, time 242-246 hrs
MCF7 [32] = experiment: Effect of IL-6 protein level in human MCF7 cells at 10 uM measured for 24 hrs by ELISA analysis; format: functional, cell-based
Mus musculus = experiment: Induction of hyperthermia in BALB/c mouse xenografted with human MCF7 cells assessed as burning of skin at 1.2 mg/kg, iv administered for 10 days followed by ultrasonic sound treatment for 2 to 6 hrs and measured immediately; format: functional, organism-based; conditions: time 242-246 hrs
[33] = Toxicity in BALB/c mouse xenografted with human MCF7 cells assessed as kidney damage at 1.2 mg/kg, iv administered for 10 days followed by ultrasonic sound treatment for 2 to 6 hrs and measured immediately by Hand E staining based analysis; format: organism-based; conditions: in vivo, time 242-246 hrs
[34] = Toxicity in BALB/c mouse xenografted with human MCF7 cells assessed as heart damage at 1.2 mg/kg, iv administered for 10 days and measured immediately by Hand E staining based analysis; format: organism-based; conditions: in vivo, 240 h, time 10 day
[35] = Toxicity in BALB/c mouse xenografted with human MCF7 cells assessed as spleen damage at 1.2 mg/kg, iv administered for 10 days and measured immediately by Hand E staining based analysis; format: organism-based; conditions: in vivo, 240 h, time 10 day
[36] = Toxicity in BALB/c mouse xenografted with human MCF7 cells assessed as heart damage at 1.2 mg/kg, iv administered for 10 days followed by ultrasonic sound treatment for 2 to 6 hrs and measured immediately by Hand E staining based analysis; format: organism-based; conditions: in vivo, time 242-246 hrs
[37] = Drug uptake in BALB/c mouse skin xenografted with human MCF7 cells assessed as accumulation of red fluorescence at 1.5 mg/kg, iv measured at 6 hrs by fluorescence imaging analysis; format: ADME, organism-based, Skin of body; conditions: in vivo
[38] = Drug uptake in BALB/c mouse limb xenografted with human MCF7 cells assessed as accumulation of red fluorescence at 1.5 mg/kg, iv measured at 6 hrs by fluorescence imaging analysis; format: ADME, organism-based; conditions: in vivo
MCF7 [39] = experiment: Antitumor activity against human MCF7 cells xenografted in BALB/c mouse assessed as tumor growth inhibition at 1.5 mg/kg, iv administered for 10 days followed by ultrasonic sound treatment for 2 to 6 hrs and measured immediately; format: functional; conditions: time 242-246 hrs, read-out: TGI

## C=CC1=C(C)c2cc3[nH]c(cc4nc(cc5[nH]c(cc1n2)c(C)c5CCC(=O)O)C(CCC(=O)O)=C4C)c(C)c3C=C
MCF7 [1]
  Activity: Active

## COc1cc(/C=C/c2ccc(N(c3ccc(/C=C/c4cc(OC)cc(OC)c4)cc3)c3ccc(-c4ccc(-c5ccc(N(c6ccc(/C=C/c7cc(OC)cc(OC)c7)cc6)c6ccc(/C=C/c7cc(OC)cc(OC)c7)cc6)cc5)c5nsnc45)cc3)cc2)cc(OC)c1
[2]
  inhibition: Active
[3]
  EC50: 0.217 µM
[4]
  T: 5.9 °C
MCF7 [5]
  IC50: 0.61 µM
MCF7 [6]
  Activity: 5.8%
MCF7 [7]
  IC50: 3.5 µM
MCF7 [8]
  Activity: inactive
MCF7 [9]
  Activity: inactive
MCF7 [10]
  Activity: 2.33%
MCF7 [11]
  Activity: 3.59%
MCF7 [12]
  Activity: Active
MCF7 [1]
  IC50: 3.5 µM
MCF7 [13]
  Activity: 28.7%
MCF7 [14]
  IC50: 0.83 µM
[15]
  inhibition at 10 µM: 72%
MCF7 [16]
  Activity: Active
MCF7 [17]
  IC50: 3.6 µM
MCF7 [18]
  Activity: 35.4%
MCF7 [19]
  Activity: 97.5%

## COc1cc(/C=C/c2ccc(N(c3ccc(Br)cc3)c3ccc(-c4ccc(-c5cccs5)c5nsnc45)cc3)cc2)cc(OC)c1
[2]
  inhibition: Active
[3]
  EC50: 0.0729 µM
[4]
  T: 3.4 °C
MCF7 [5]
  IC50: 1.2 µM
MCF7 [6]
  Activity: 4.5%
MCF7 [7]
  IC50: 4.2 µM
MCF7 [8]
  Activity: inactive
MCF7 [9]
  Activity: inactive
MCF7 [10]
  Activity: 4.37%
MCF7 [11]
  Activity: 1.74%
MCF7 [12]
  Activity: Active
MCF7 [13]
  Activity: 87.5%
MCF7 [14]
  IC50: 2 µM
[15]
  inhibition at 10 µM: 48%
MCF7 [16]
  Activity: Active
MCF7 [17]
  IC50: 9.2 µM
MCF7 [18]
  Activity: 56.4%
MCF7 [19]
  Activity: 48.1%

## COc1cc(/C=C/c2ccc(N(c3ccccc3)c3ccc(-c4ccc(-c5ccc(N(c6ccccc6)c6ccc(/C=C/c7cc(OC)cc(OC)c7)cc6)cc5)c5nsnc45)cc3)cc2)cc(OC)c1
[2]
  inhibition: Active
[20]
  Activity: Non-Toxic
[3]
  EC50: 0.0689 µM
[4]
  T: 3.9 °C
MCF7 [5]
  IC50: 0.29 µM
MCF7 [6]
  Activity: 12.4%
[21]
  Activity: Non-Toxic
[22]
  Activity: Non-Toxic
[23]
  Activity: 42%
[24]
  Activity: Non-Toxic
[25]
  Activity: Non-Toxic
MCF7 [7]
  IC50: 1.6 µM
MCF7 [8]
  Activity: inactive
[26]
  Drug uptake: Active
MCF7 [27]
  Activity: Active
[28]
  Activity: Non-Toxic
[29]
  Activity: Non-Toxic
MCF7 [30]
  Activity: Active
[31]
  Activity: Non-Toxic
MCF7 [32]
  Activity: Active
Mus musculus
  Activity: Active
MCF7 [9]
  Activity: inactive
MCF7 [10]
  Activity: 0.045%
MCF7 [11]
  Activity: 0.29%
[33]
  Activity: Non-Toxic
MCF7 [12]
  Activity: Active
MCF7 [1]
  IC50: 1.6 µM
MCF7 [13]
  Activity: 70%
MCF7 [14]
  IC50: 0.55 µM
[34]
  Activity: Non-Toxic
[15]
  inhibition at 10 µM: 76%
[35]
  Activity: Non-Toxic
MCF7 [16]
  Activity: Active
MCF7 [17]
  IC50: 2.4 µM
[36]
  Activity: Non-Toxic
MCF7 [18]
  Activity: 29.7%
[37]
  Drug uptake: Active
MCF7 [19]
  Activity: 92.8%
[38]
  Drug uptake: Active
MCF7 [39]
  inhibition in vivo at 1.5 mg/kg: 70%

## COc1cc(/C=C/C(=O)CC(=O)/C=C/c2ccc(O)c(OC)c2)ccc1O
MCF7 [1]
  Activity: Active
